Reference: paper PMC12592420, “A mismatch in enzyme-redox partnerships underlies divergent cytochrome P450 activities between human hepatocytes and microsomes” (Communications Biology, 2025)
Where “and” joins values, the source holds several entries; their conditions need not be identical. Equal entries are not always repeated.

Legend:
[1] = Metabolism of savolitinib in lysed hepatocytes + NADPH; type: in vitro ADME, human; conditions: savolitinib 1 µM, HH lysate + NADPH
Protocol: HH in Leibovitz buffer were centrifuged at 11,250 × g for 5 min to pellet the cells. Taking care not to disturb the pellet, all the media was removed using a pipette. Ice-cold water was added and the mixture vortex-mixed to resuspend the cells and stored at −80 °C for 5 min followed by sonication for 10 min to lyse the cells. The resuspended lysate final volume was equivalent to a final cell concentration of 1 million cells/mL (the same concentration used for intact cells experiments) in […] phosphate buffer pH 7.4 and NADPH (final 1 mM). After pre-incubating for 5 min at 37 °C, the reaction (metabolism of savolitinib) in the lysate was initiated by adding savolitinib (final 1 µM). […] Authentic standards (M2 and M4) were spiked into hepatocyte lysate and used to construct standard curves. The acetonitrile/hepatocyte lysate mixtures were centrifuged at 3000 × g for 10 min and 50 µl of the supernatant was mixed with 300 µl of water and 3 µL was injected into the mass spectrometer for analysis by multiple reaction monitoring.

[2] = Savolitinib metabolite (M2, M4) formation in NADPH-HLM (with BSA or cytosol where stated); type: in vitro ADME, human; parameters: [M4] / M2 average / M4 average: unit not given here; conditions: 60min; for M4 average: average of duplicate (Suppl. Fig. 1); for [M4]: savolitinib 1 µM, single measurements (Suppl. Fig. 1)
recombinant CYP3A4-POR = biological target: T1, recombinant CYP3A4-POR (Homo sapiens, UniProt P08684); experiment: Savolitinib incubation with recombinant CYP3A4-POR Supersomes; type: in vitro ADME; conditions: CYP3A4 (CYP13A4 [sic]), savolitinib 1 µM, 1 h (Fig. 2c)
T1 construct: purchased 456202
T1 sequence (P08684 whole entry): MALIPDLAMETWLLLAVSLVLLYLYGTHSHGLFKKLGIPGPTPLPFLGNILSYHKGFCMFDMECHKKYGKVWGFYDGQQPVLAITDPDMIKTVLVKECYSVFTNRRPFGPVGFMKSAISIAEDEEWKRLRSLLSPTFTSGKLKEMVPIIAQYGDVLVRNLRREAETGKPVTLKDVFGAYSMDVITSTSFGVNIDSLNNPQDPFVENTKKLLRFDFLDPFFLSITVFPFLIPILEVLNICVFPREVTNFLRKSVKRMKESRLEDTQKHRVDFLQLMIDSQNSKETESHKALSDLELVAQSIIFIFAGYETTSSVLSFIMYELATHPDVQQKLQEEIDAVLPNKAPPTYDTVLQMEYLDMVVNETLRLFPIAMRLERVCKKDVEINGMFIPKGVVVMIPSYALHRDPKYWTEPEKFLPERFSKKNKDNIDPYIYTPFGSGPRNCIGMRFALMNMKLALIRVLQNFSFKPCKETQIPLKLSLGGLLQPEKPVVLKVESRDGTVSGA
Protocol: For detailed comparisons between recombinant CYP1A2 and CYP3A4 (Fig. 2B, C), Supersomes were used (CYP1A2, catalogue number 456203, CYP3A4, catalogue number 456202). […] The concentration of savolitinib metabolites M2 and M4 formed were determined from standard curves obtained by spiking the appropriate concentrations of M2 and M4 into recombinant enzymes (in the absence of NADPH) and processing in the same way as the samples.

[3] = Incubations in HLM + NADPH from the same donor pool as S9; type: in vitro ADME, human; conditions: for microsomal CLint at 1 µM: human, human liver microsomes, pH 7.4, Midazolam CLint
Text: Liver S9 (lot 1810001, pool of 50, Xenotech) and HLM (pool of 50, lot 1810003, Xenotech) from the same pool of donors were purchased from Xenotech.

[4] = Midazolam CLint in HLM with NADPH:NADH (1:1); type: in vitro ADME, human; conditions: cofactor NADH:NADPH (1:1) (Fig. 5b)
[5] = biological target: T2, recombinant human CYP3A4-POR containing cytochrome b5 (Homo sapiens, UniProt P08684); experiment: Midazolam CLint by canonical recombinant CYP3A4-POR with cytochrome b5, with and without gefitinib; type: in vitro ADME; conditions: CYP3A4_POR, NADPH, listed as Mid
T2 construct: purchased BioIVT (named in b64 for the custom bactosomes); host or cells: bactosomes (E. coli is stated for the panel, not for this product)
T2 sequence (P08684 whole entry): as above
Protocol: (§1) As the reaction-rate was much higher, aliquots were taken at 0, 1, 2, 3, 4 and 5 min.

in vitro [6] = conditions: human, hepatocytes
Protocol: Cryopreserved HH prepared from a mixed-gender pool of twenty donors (product X008000, lot EEO, BIOIVT), ten-donors (product S01205, lot MTJ, BIOIVT), ten donors (product S01205 lot LYB, BIOIVT) were utilised in the experiments. Cryopreserved HH were rapidly thawed in a water bath set at 37 °C and added to Leibovitz media that had been pre-warmed in the water bath. The suspension of cells was mixed gently and centrifuged at 40 × g for 4 min at room temperature. Excess media was removed, and the cells were re-suspended in 5 mL of fresh Leibovitz media. The cells were counted using an automated cell counter (Cellometer).

in vitro [7] = conditions: human, Caco-2
[8] = Incubations in human liver S9 + NADPH (same donor pool as HLM); type: in vitro ADME; conditions: human, human liver S9, pH 7.4, Midazolam CLint
[9] = CLint in NADPH-supplemented human liver microsomes; conditions: for microsomal CLint at 1 µM / CLint scaled at 1 µM: human, microsomes
Protocol: (§2) Calculation and scaling of CLint,u was done using the equation below and 45 mg of microsomal protein per gram of liver. HLMCLint,u=ln2/x1/t1/2(min)xmLincubation/mgmicrosomalproteinx45mgmicrosomalprotein/gliverx21gliver/kg/Fuinc

[10] = CLint in NADH-supplemented human liver microsomes; conditions: for microsomal CLint at 1 µM / CLint scaled at 1 µM: human, microsomes
Protocol: as §2

[11] = Free fraction in HLM incubation, equilibrium dialysis; type: in vitro ADME, human; conditions: fraction unbound, measured or estimated by in silico models of Fuinc
[12] = biological target: T3, recombinant human CYP3A4-Cytb5R containing cytochrome b5 (Homo sapiens, UniProt P08684); experiment: Midazolam CLint by non-canonical recombinant CYP3A4-Cytb5R with cytochrome b5, with and without gefitinib; type: in vitro ADME; conditions: CYP3A4_Cytb5R, NADPH, listed as Mid
T3 construct: purchased BioIVT (custom synthesis) CE00001(CYP3A4), batch CPD034-3A4; host or cells: bactosomes
T3 sequence (P08684 whole entry): as above
Protocol: As commercial recombinant human CYPs co-express the individual CYP and reductase with an option to include cytochrome b5. A custom synthesis co-expressing CYP3A4 or CYP1A2 and Cytb5R plus cytochrome b5 was, therefore, ordered from BioIVT and the bactosomes were compared with canonical CYP-POR enzymes plus cytochrome b5.
as §1

rat hepatocytes = experiment: Free fraction in rat hepatocytes as surrogate for HH, equilibrium dialysis; type: in vitro ADME; conditions: fraction unbound, measured or estimated by in silico models of Fuinc
[13] = HLM (same donors as S9) + NADPH + 5 uM GEF (Fig. 6b)
[14] = HLM (same donors as S9) + NADPH, midazolam 1 µM alone (Fig. 6b)

## C[C@@H](c1ccc(N)nc1)n1nnc2ncc(-c3cnn(C)c3)nc21 [Compound M4]
[1]; 0 min (Fig. 6cii)
  [M4]: 2.8 nM and 3 nM and 2.75 nM
[1]; 5 min (Fig. 6cii)
  [M4]: 3.1 nM and 3.9 nM and 3.3 nM
[1]; 10 min (Fig. 6cii)
  [M4]: 4.2 nM and 5.25 nM and 4 nM
[1]; 20 min (Fig. 6cii)
  [M4]: 4.6 nM and 6.95 nM and 4.95 nM
[1]; 40 min (Fig. 6cii)
  [M4]: 6.1 nM and 9.2 nM and 6.8 nM
[1]; 60 min (Fig. 6cii)
  [M4]: 7.5 nM and 10.55 nM and 8.1 nM
[2]; cytosol 0 mg/mL
  M4 average: 45.7 and 50.45 and 48.25
  [M4]: 45.1 and 46.3 and 50.7 and 50.2 and 47.8 and 48.7
[2]; cytosol 4 mg/mL
  M4 average: 17.35 and 19.85 and 21.35
  [M4]: 17.9 and 16.8 and 19.5 and 20.2 and 21.9 and 20.8
[2]; cytosol 10 mg/mL
  M4 average: 7.4 and 8.2 and 10.05
  [M4]: 7.5 and 7.3 and 8.2 and 10.2 and 9.9
Recombinant CYP3A4-POR
  [M4] nM formed by recombinant CYPs: 208.8 nM and 197.55 nM and 216.7 nM
[3]; HLM (same donors as S9) + NADPH, savolitinib 1 µM, 1 h (Fig. 6aii)
  [M4]: 59.25 nM and 71.3 nM and 48.9 nM

## Cc1ncc2n1-c1ccc(Cl)cc1C(c1ccccc1F)=NC2 [Midazolam]
[4]
  Scaled midazolam CLint,u: 761.569 mL/min/kg and 740.511 mL/min/kg
[4]; human, human liver microsomes, pH 7.4, Scaled midazolam CLint,u
  CLint scaled at 1 µM: 762 mL/min/kg
[5]; Mid + GEF 5 µM (Fig. 5e)
  Midazolam CLint: 3292.07 µL/min/nmol and 3281.83 µL/min/nmol and 2734.43 µL/min/nmol
[5]; Mid alone (Fig. 5e)
  Midazolam CLint: 4061.76 µL/min/nmol and 4262.77 µL/min/nmol and 3511.63 µL/min/nmol
In vitro [6]; HH_scaled_CLint,u
  CLint scaled: 90.5 mL/min/kg
In vitro [6]; Midazolam scaled CLint,u
  CLint scaled: 104 mL/min/kg
In vitro [6]; Scaled HH CLint,u
  CLint scaled: 62.8 mL/min/kg
In vitro [6]; Scaled HH CLint,u average
  CLint scaled: 51.2 mL/min/kg
In vitro [7]
  Papp: 47.5 ×10⁻⁶ cm/s
[8]; S9 + NADPH + 5 uM GEF (Fig. 6b)
  microsomal CLint at 1 µM: 150 µL/min/mg
[8]; S9 + NADPH, midazolam 1 µM alone (Fig. 6b)
  microsomal CLint at 1 µM: 77.2 µL/min/mg
[9]; Fig. 4a,d
  NADPH_HLM_scaled_CLint,u: 614.71 mL/min/kg
[9]; HLM + NADPH, control without gefitinib (Fig. 3d)
  Midazolam CLint: 265.8 µL/min/mg and 269.7 µL/min/mg
[9]; HLM + NADPH, no gefitinib (Fig. 3a)
  Midazolam scaled CLint,u: 531.926 mL/min/kg and 593.803 mL/min/kg
[9]; HLM, cofactor NADPH (Fig. 5b)
  Scaled midazolam CLint,u: 703.964 mL/min/kg and 722.238 mL/min/kg
[9]; NADPH-HLM, individual determinations 1-3, Fig. 1
  Scaled HLM CLint,u: 632.553 mL/min/kg and 670.23 mL/min/kg
[9]; pH 7.4, HLM_NADPH CLint, 1 µM, single determination, Fig. 4a,d
  microsomal CLint at 1 µM: 295 µL/min/mg
[9]; pH 7.4, Midazolam CLint, HLM + NADPH, control without gefitinib (Fig. 3d)
  microsomal CLint at 1 µM: 288 µL/min/mg
[9]; pH 7.4, Midazolam scaled CLint,u, HLM + NADPH, no gefitinib (Fig. 3a)
  CLint scaled at 1 µM: 619 mL/min/kg
[9]; pH 7.4, Scaled HLM CLint,u average, NADPH-HLM, average, Fig. 1
  CLint scaled at 1 µM: 649 mL/min/kg
[9]; pH 7.4, Scaled HLM CLint,u, NADPH-HLM, individual determinations 1-3, Fig. 1
  CLint scaled at 1 µM: 643 mL/min/kg
[9]; pH 7.4, Scaled midazolam CLint,u, HLM, cofactor NADPH (Fig. 5b)
  CLint scaled at 1 µM: 693 mL/min/kg
[10]; HLM + NADH, control without gefitinib (Fig. 3d)
  Midazolam CLint: 23.9 µL/min/mg and 21.4 µL/min/mg
[10]; HLM, cofactor NADH (Fig. 5b)
  Scaled midazolam CLint,u: 248.867 mL/min/kg and 261.398 mL/min/kg
[10]; pH 7.4, HLM_NADH CLint, 1 µM, single determination, Fig. 4a,d
  microsomal CLint at 1 µM: 103 µL/min/mg
[10]; pH 7.4, Midazolam CLint, HLM + NADH, control without gefitinib (Fig. 3d)
  microsomal CLint at 1 µM: 14.7 µL/min/mg
[10]; pH 7.4, NADH_HLM_scaled_CLint,u, Fig. 4a,d
  CLint scaled at 1 µM: 213 mL/min/kg
[10]; pH 7.4, Scaled midazolam CLint,u, HLM, cofactor NADH (Fig. 5b)
  CLint scaled at 1 µM: 247 mL/min/kg
[11]
  fu_HLM: 0.454
[3]; [13]
  Midazolam CLint: 392.5 µL/min/mg and 377.3 µL/min/mg
  Percentage of midazolam alone: 121.498% and 119.228% and 122.262%
  microsomal CLint at 1 µM: 336 µL/min/mg
[3]; [14]
  Midazolam CLint: 329.2 µL/min/mg
  microsomal CLint at 1 µM: 276 µL/min/mg
[12]; Mid + GEF 5 µM (Fig. 5f)
  Midazolam CLint: 19.6 µL/min/nmol and 13.9 µL/min/nmol and 18.8 µL/min/nmol
[12]; Mid alone (Fig. 5f)
  Midazolam CLint: 6.9 µL/min/nmol and 5.5 µL/min/nmol and 5.1 µL/min/nmol
Rat hepatocytes
  fu_ratHH: 0.543
